Results published in patent US7977358B2, “Pyrazol derivatives” (Hoffmann-La Roche Inc., priority 2007, dated 2011).

Molecular target: T1, human chemokine receptor 2 isoform B (CCR2B) (Homo sapiens, UniProt P41597)
T1 construct: host or cells: CHOK1-CCR2B-A5 (CHO-K1) cells
T1 sequence (P41597 1-360 isoform P41597-2): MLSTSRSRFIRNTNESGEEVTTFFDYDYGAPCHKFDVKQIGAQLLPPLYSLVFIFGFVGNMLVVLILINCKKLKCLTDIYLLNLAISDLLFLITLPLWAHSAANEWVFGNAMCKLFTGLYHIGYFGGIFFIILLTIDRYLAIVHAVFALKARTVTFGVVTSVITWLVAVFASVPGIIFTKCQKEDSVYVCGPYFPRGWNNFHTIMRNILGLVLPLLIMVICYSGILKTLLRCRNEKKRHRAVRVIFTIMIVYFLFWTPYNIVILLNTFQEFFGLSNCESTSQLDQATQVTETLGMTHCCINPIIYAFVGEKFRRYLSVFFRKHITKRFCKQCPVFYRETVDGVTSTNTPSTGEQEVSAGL
Test: Calcium mobilization assay
Type: cell-based
Details: CHOK1-CCR2B-A5 cells, 20 nM MCP-1, FLIPR
Description: Calcium Mobilization Assay
CHOK1-CCR2B-A5 cells (from Euroscreen) stably overexpressing the human chemokine receptor 2 isoform B were cultured in Nutrient Hams F12 medium supplemented with 5% FBS, 100 U/ml penicillin, 100 μg/ml streptomycin, 400 μg/ml G418 and 5 μg/ml puromycin. For the assay cells were grown overnight in 384-well black clear flat bottom polystyrene plates (Costar) at 37° C. at 5% CO2. After washing with DMEM, 20 mM Hepes, 2.5 mM probenecid, 0.1% BSA (DMEM assay buffer) cells were loaded with 4 μM Fluo-4 in the same DMEM assay buffer for 2 hours at 30° C. Excess dye was removed and cells were washed with DMEM assay buffer. 384-well compound plates were prepared with DMEM assay buffer/0.5% DMSO with or without various concentrations of test compounds. Usually compounds were tested for agonist and antagonist activity.
Test compounds were added to the assay plate and agonist activity was monitored as fluorescence for 80 seconds with a FLIPR (488 nm excitation; 510-570 nm emission; Molecular Devices). After 20-30 min. of incubation at 30° C., 20 nM MCP-1 (R&D; Roche) was added and fluorescence was monitored again for 80 seconds. Increases in intracellular calcium are reported as maximum fluorescence after agonist exposure minus basal fluorescence before exposure. Antagonist activity is indicated as inhibitor concentration required for 50% inhibition of specific calcium increases.

| IC50 [nM] | Compound |
| --- | --- |
| 154 | Cc1nn(-c2cccc(OC(F)(F)F)c2)c(C2CC2)c1C(=O)N1CCC(N2C[C@@H](O)CC2C)CC1 (stereo in doubt) [Example 138, [5-Cyclopropyl-3-methyl-1-(3-trifluoromethoxy-phenyl)-1H-pyrazol-4-yl]-[4-((2R,4S)-4-hydroxy-2-methyl-pyrrolidin-1-yl)-piperidin-1-yl]-methanone] |
| 100 | CCN(CC)C1CCN(C(=O)c2c(C)nn(-c3cccc(/C=C/c4ccc(Cl)cc4)c3)c2C)C1 (centres unmarked) [Example 29, (1-{3-[(E)-2-(4-Chloro-phenyl)-vinyl]-phenyl}-3,5-dimethyl-1H-pyrazol-4-yl)-(3-diethylamino-pyrrolidin-1-yl)-methanone] |
| 122 | O=C(c1c(C2CC2)nn(-c2cccc(OC(F)(F)F)c2)c1C1CC1)N1CCC(N2CCCC2)CC1 [Example 76, [3,5-Dicyclopropyl-1-(3-trifluoromethoxy-phenyl)-1H-pyrazol-4-yl]-(4-pyrrolidin-1-yl-piperidin-1-yl)-methanone] |
| 658 | Cc1nn(-c2cccc(C(F)(F)F)c2)c(C)c1C(=O)N1CCC(N2CCOCC2)CC1 [Example 83, [3,5-Dimethyl-1-(3-trifluoromethyl-phenyl)-1H-pyrazol-4-yl]-(4-morpholin-4-yl-piperidin-1-yl)-methanone] |
| 306 | CC(=O)N[C@@H]1CCN(C2CCN(C(=O)c3c(C)nn(-c4cccc(OC(F)(F)F)c4)c3C)CC2)C1 [Example 119, N-((R)-1-{1-[3,5-Dimethyl-1-(3-trifluoromethoxy-phenyl)-1H-pyrazole-4-carbonyl]-piperidin-4-yl}-pyrrolidin-3-yl)-acetamide] |
| 730 | Cc1nn(-c2cccc(OC(F)(F)F)c2)c(C)c1C(=O)N1CCC(N2CCCC2C)C1 (centres unmarked) [Example 122, [3,5-Dimethyl-1-(3-trifluoromethoxy-phenyl)-1H-pyrazol-4-yl]-(2-methyl-[1,3′]bipyrrolidinyl-1′-yl)-methanone] |
| 141 | Cc1nn(-c2cccc(OC(F)(F)F)c2)c(C2CC2)c1C(=O)N1CCC(N2CCC3(C2)NC(=O)NC3=O)CC1 (centres unmarked) [Example 139, 7-{1-[5-Cyclopropyl-3-methyl-1-(3-trifluoromethoxy-phenyl)-1H-pyrazole-4-carbonyl]-piperidin-4-yl}-1,3,7-triaza-spiro[4.4]nonane-2,4-dione] |
| 97.2 | Cc1c(C(=O)N2CCC(N3CCC[C@H]3CO)CC2)c(-c2ccncc2)nn1-c1cccc(OC(F)(F)F)c1 [Example 161, [4-((S)-2-Hydroxymethyl-pyrrolidin-1-yl)-piperidin-1-yl]-[5-methyl-3-pyridin-4-yl-1-(3-trifluoromethoxy-phenyl)-1H-pyrazol-4-yl]-methanone] |
